These results are taken from article PMC6323060, “Expression in eukaryotic cells and purification of synthetic gene encoding enterocin P: a bacteriocin with broad antimicrobial spectrum” (AMB Express, 2019).

Broadly, the MIC is the lowest concentration that inhibits growth of the organism.

The test system of data set [1] is Staphylococcus aureus ATCC 25923. Briefly: MIC, broth micro-dilution (CLSI). The settings on record: for MIC: Staphylococcus aureus, ATCC25923, read-out: Antimicrobial activity MIC.
In the next data set the test system is E. coli ATCC 25922. Briefly: MIC, broth micro-dilution (CLSI). The settings on record: Escherichia coli, ATCC25922, read-out: Antimicrobial activity MIC. Background: Broth dilution looks for growth in wells or tubes with falling amounts of substance.
A further data set has as its system Listeria monocytogenes. Nature of the data set: MIC, broth micro-dilution (CLSI). The settings on record: for MIC: Listeria monocytogenes, read-out: Antimicrobial activity MIC.
For another data set, the system named is Salmonella paratyphi C. Nature of the data set: MIC, broth micro-dilution (CLSI). It is filed as cell-based. The following applies: Salmonella enterica, read-out: Antimicrobial activity MIC.
Data set [2] has as its system Klebsiella pneumonia ATCC 700603. Briefly: MIC, broth micro-dilution (CLSI). The following applies: for MIC: Klebsiella pneumoniae, ATCC700603, read-out: Antimicrobial activity MIC.
Data set [3] deals with Enterococcus faecalis ATCC 29212. Briefly: MIC, broth micro-dilution (CLSI). The settings on record: for MIC: Enterococcus faecalis, ATCC29212, read-out: Antimicrobial activity MIC.
For the next data set, the system named is Salmonella typhi. Briefly: MIC, broth micro-dilution (CLSI). It counts as cell-based. The settings on record: Salmonella typhi clinical isolate, MHB, approx. 5 × 10^5 CFU/ml, overnight 37 °C, triplicate; for MIC: Salmonella enterica, read-out: Antimicrobial activity MIC.
The subject of a further data set is Shigella dysenteriae. Briefly: MIC, broth micro-dilution (CLSI). It is filed as cell-based. The following applies: for MIC: Shigella dysenteriae, read-out: Antimicrobial activity MIC.
In data set [4] the test system is Staphylococcus aureus ATCC 29213. Nature of the data set: MIC, broth micro-dilution (CLSI). The following applies: for MIC: Staphylococcus aureus, ATCC29213, read-out: Antimicrobial activity MIC.
For data set [5], the system named is Pseudomonas aeruginosa ATCC 27853. Briefly: MIC, broth micro-dilution (CLSI). The following applies: for MIC: Pseudomonas aeruginosa, ATCC27853, read-out: Antimicrobial activity MIC.
In another data set the test system is VRE. Briefly: MIC, broth micro-dilution (CLSI). The settings on record: for MIC: Enterococcus, VRE, read-out: Antimicrobial activity MIC.
Data set [6] deals with Pseudomonas aeruginosa VIM+. Nature of the data set: MIC, broth micro-dilution (CLSI). The settings on record: for MIC: Pseudomonas aeruginosa, read-out: Antimicrobial activity MIC.
In another data set the test system is MRSA ATCC 33591. Briefly: MIC, broth micro-dilution (CLSI). The following applies: for MIC: Staphylococcus aureus, read-out: Antimicrobial activity MIC.
The test system of data set [7] is Acinetobacter baumannii ATCC 13304. Briefly: MIC, broth micro-dilution (CLSI). The following applies: ATCC13304, read-out: Antimicrobial activity MIC.
For data set [8], the system named is E. coli (ATCC 25922). Nature of the data set: Stability in 50% human plasma, read out as antimicrobial activity (MIC assay). It counts as in vitro ADME, Escherichia coli. The arrangement: key: +: presence of activity; −: absence of activity. The following applies: 800 μg/ml peptide diluted 1:1 with fresh human plasma (50%), 37 °C. The procedure: (§1) To investigate the activities of the EntP peptide in the presence of high salt concentrations, the MIC was determined as described above, except that fixed concentration of NaCl was added to each well of the microtiter plate. Overnight cultures of S. aureus (ATCC 25923) and E. coli (ATCC 25922) as Gram-positive and Gram-negative model strains were incubated in MHB with 0, 50, 100, or 150 mM NaCl for 4 h. Bacteria were serially diluted and plated in triplicate on Trypticase soy agar (HiMedia, India) plates. CFUs were counted after 24 h of incubation at 37 °C. The stability of EntP peptide in 50% human plasma was evaluated as previously described (Hou et al. [2011]). The human plasma was determined to contain no antimicrobial activity before the test. Then 800 μg/ml of recombinant EntP peptide was diluted 1:1 with fresh human plasma and incubated at 37 °C for 0, 3, or 6 h. After incubation, the antimicrobial activity of each sample was determined by MIC assays with S. aureus (ATCC 25923) and E. coli (ATCC 25922).

The test system of data set [9] is S. aureus (ATCC 25923). The description is as above. It is filed as in vitro ADME, Staphylococcus aureus. The arrangement: key: +: presence of activity; −: absence of activity. The following applies: 800 μg/ml peptide diluted 1:1 with fresh human plasma (50%), 37 °C. On the procedure:
as §1

The test system of data set [10] is S. aureus (ATCC 25923). Nature of the data set: Effect of salt (NaCl) on antimicrobial activity. It counts as cell-based, Staphylococcus aureus. The settings on record: 4 h, CFU counted after 24 h at 37 °C, triplicate. The arrangement: key: +: presence of activity; −: absence of activity. On the procedure: as §1
In data set [11] the test system is E. coli (ATCC 25922). Nature of the data set: Effect of salt (NaCl) on antimicrobial activity. It counts as cell-based, Escherichia coli. On the set-up: key: +: presence of activity; −: absence of activity. The settings on record: 4 h, CFU counted after 24 h at 37 °C, triplicate. The procedure:
as §1

For data set [12], the system named is S. aureus (ATCC 25923) and E. coli (ATCC 25922). Briefly: Antimicrobial activity in 50% human plasma, overall statement. The settings on record: 37 °C, 0, 3 or 6 h, read-out MIC assay. It counts as in vitro ADME. On the procedure:
as §1

Values after ≈ are worked out from the molar mass of the structure shown. Ends that are not written are not given here.

With `CC1(C)S[C@@H]2[C@H](NC(=O)[C@H](N)c3ccccc3)C(=O)N2[C@H]1C(=O)O` [Ampicillin], the minimal inhibitory concentration (MIC) in [1] is at most 1 µg/mL; in the data set with E. coli ATCC 25922 it was at most 2 µg/mL; in the data set with Listeria monocytogenes, 2 µg/mL (≈ 5.72 µM); in the data set on Salmonella paratyphi C it was 2 µg/mL (≈ 5.72 µM); in data set [2] it was over 128 µg/mL; in [3], at most 1 µg/mL. Also, the values for the MIC (in the data set on Salmonella typhi; with Shigella dysenteriae; in [4]) were 2 µg/mL (≈ 5.72 µM), 4 µg/mL (≈ 11.4 µM) and at most 1 µg/mL, respectively.

Regarding `CC(C)(O/N=C(\C(=O)N[C@@H]1C(=O)N2C(C(=O)[O-])=C(C[n+]3ccccc3)CS[C@H]12)c1csc(N)n1)C(=O)O` [Ceftazidime], the MIC in data set [1] is at most 2 µg/mL; in data set [5], 2 µg/mL (≈ 3.66 µM); in the data set with VRE, 32 µg/mL (≈ 58.5 µM); with E. coli ATCC 25922 it was at most 2 µg/mL; in the data set on Listeria monocytogenes, at most 4 µg/mL; in the data set with Salmonella paratyphi C it was 4 µg/mL (≈ 7.32 µM). Moreover, the MIC in [6] was at least 32 µg/mL; in data set [2], at least 16 µg/mL; in data set [3] it was at most 4 µg/mL; in the data set on MRSA ATCC 33591 it was 16 µg/mL (≈ 29.3 µM); with Salmonella typhi it was 4 µg/mL (≈ 7.32 µM); with Shigella dysenteriae, at most 2 µg/mL. Further, the values for the minimal inhibitory concentration (MIC) in [4] and in data set [7] were at most 2 µg/mL and at least 32 µg/mL, respectively.

For `CNC(C)C1CCC(N)C(OC2C(N)CC(N)C(OC3OCC(C)(O)C(NC)C3O)C2O)O1` (stereo not drawn) [Gentamicin], the minimum inhibitory concentration (MIC) in data set [1] is at most 1 µg/mL; in data set [5], at most 16 µg/mL; in the data set with VRE, at least 16 µg/mL; in the data set on E. coli ATCC 25922, at most 1 µg/mL; in the data set with Listeria monocytogenes it was 8 µg/mL (≈ 16.8 µM); with Salmonella paratyphi C it was at most 1 µg/mL. Also, the minimal inhibitory concentration (MIC) was at least 16 µg/mL in [6]; at least 16 µg/mL in [2]; at most 1 µg/mL in data set [3]; at least 16 µg/mL in the data set with MRSA ATCC 33591; at most 2 µg/mL in the data set on Salmonella typhi; 4 µg/mL (≈ 8.38 µM) with Shigella dysenteriae. Also, the minimal inhibitory concentration (MIC) in data set [4] was at most 1 µg/mL; in data set [7], at least 16 µg/mL.

On to `CCN1CCN(C(=O)N[C@@H](C(=O)N[C@@H]2C(=O)N3[C@@H]2SC(C)(C)[C@@H]3C(=O)O)c2ccccc2)C(=O)C1=O` [Piperacillin], for which the MIC in [5] is at most 8 µg/mL; in the data set on E. coli ATCC 25922, at most 8 µg/mL; in the data set with Listeria monocytogenes, 4 µg/mL (≈ 7.73 µM); in the data set with Salmonella paratyphi C, at most 8 µg/mL; in data set [6], at least 128 µg/mL; in data set [2], at least 128 µg/mL. In addition, the MIC in the data set with Salmonella typhi was 4 µg/mL (≈ 7.73 µM); in the data set with Shigella dysenteriae it was 4 µg/mL (≈ 7.73 µM); in data set [7], at least 64 µg/mL.

On to `CN[C@H](CC(C)C)C(=O)N[C@H]1C(=O)N[C@@H](CC(N)=O)C(=O)N[C@H]2C(=O)N[C@H]3C(=O)N[C@H](C(=O)N[C@H](C(=O)O)c4cc(O)cc(O)c4-c4cc3ccc4O)[C@H](O)c3ccc(c(Cl)c3)Oc3cc2cc(c3O[C@@H]2O[C@H](CO)[C@@H](O)[C@H](O)[C@H]2O[C@H]2C[C@](C)(N)[C@H](O)[C@H](C)O2)Oc2ccc(cc2Cl)[C@H]1O` [Vancomycin], for which the MIC in data set [1] is at most 1 µg/mL; in the data set with VRE it was at least 32 µg/mL; in the data set with Listeria monocytogenes, 1 µg/mL (≈ 0.69 µM); in [3], at most 1 µg/mL; with MRSA ATCC 33591, at least 16 µg/mL; in [4], at most 1 µg/mL.

In the case of “enterocin P (ATRSYGNGVYCNNSKCWVNWGEAKENIAGIVISGWASGLAGMGH-{H2N-H2N-H2N-H2N-H2N-H2N}; ends and bridges not checked; UniProt O30434 28-71, looked up) [EntP]”, the “Antimicrobial activity MIC” value was determined as 8 µg/mL in data set [1] (Staphylococcus aureus ATCC 25923, broth micro-dilution (CLSI), MHB, approx. 5 × 10^5 CFU/ml, overnight 37 °C, triplicate); 8 µg/mL in [5] (Pseudomonas aeruginosa ATCC 27853, broth micro-dilution (CLSI), MHB, approx. 5 × 10^5 CFU/ml, overnight 37 °C, triplicate); 64 µg/mL with VRE (VRE clinical isolate (resistant strain), broth micro-dilution (CLSI), MHB, approx. 5 × 10^5 CFU/ml, overnight 37 °C, triplicate); 32 µg/mL with Listeria monocytogenes (Listeria monocytogenes clinical isolate, broth micro-dilution (CLSI), MHB, approx. 5 × 10^5 CFU/ml, overnight 37 °C, triplicate); 256 µg/mL in data set [6] (Pseudomonas aeruginosa VIM+ (resistant strain), broth micro-dilution (CLSI), MHB, approx. 5 × 10^5 CFU/ml, overnight 37 °C, triplicate); 8 µg/mL in data set [2] (Klebsiella pneumonia ATCC 700603 (resistant strain), broth micro-dilution (CLSI), MHB, approx. 5 × 10^5 CFU/ml, overnight 37 °C, triplicate). Besides, the “Antimicrobial activity MIC” value in data set [3] (Enterococcus faecalis ATCC 29212, broth micro-dilution (CLSI), MHB, approx. 5 × 10^5 CFU/ml, overnight 37 °C, triplicate) was found to be 16 µg/mL; in the data set on MRSA ATCC 33591 (MRSA ATCC 33591 (resistant strain), broth micro-dilution (CLSI), MHB, approx. 5 × 10^5 CFU/ml, overnight 37 °C, triplicate), 64 µg/mL; with Salmonella typhi, 16 µg/mL; with Shigella dysenteriae (Shigella dysenteriae clinical isolate, broth micro-dilution (CLSI), MHB, approx. 5 × 10^5 CFU/ml, overnight 37 °C, triplicate) it was 128 µg/mL; in data set [4] (Staphylococcus aureus ATCC 29213, broth micro-dilution (CLSI), MHB, approx. 5 × 10^5 CFU/ml, overnight 37 °C, triplicate), 8 µg/mL. The “Activity after treatment with plasma” value in the data set with E. coli (ATCC 25922) [8] (0 h), with E. coli (ATCC 25922) [8] (3 h), in the data set on E. coli (ATCC 25922) [8] (6 h), with S. aureus (ATCC 25923) [9] (0 h), in the data set on S. aureus (ATCC 25923) [9] (3 h) and in the data set with S. aureus (ATCC 25923) [9] (6 h) was “+” throughout. The “Activity after treatment with salt” value in the data set with S. aureus (ATCC 25923) [10] (0 mM NaCl in MHB) is on record as “+”; in the data set on S. aureus (ATCC 25923) [10] (50 mM NaCl in MHB), “+”; with S. aureus (ATCC 25923) [10] (100 mM NaCl in MHB) it was “+”; in the data set with S. aureus (ATCC 25923) [10] (150 mM NaCl in MHB), “−”; with E. coli (ATCC 25922) [11] (0 mM NaCl in MHB), “+”; with E. coli (ATCC 25922) [11] (50 mM NaCl in MHB) it was “+”. Also, the “Activity after treatment with salt” value is recorded as “+” in the data set with E. coli (ATCC 25922) [11] (100 mM NaCl in MHB) and “−” in the data set with E. coli (ATCC 25922) [11] (150 mM NaCl in MHB). Further, the “Antimicrobial activity in 50% human plasma compared with PBS” value in [12] is on record as “not significantly different from that in PBS”.
